From the NIST ThermoML archive (doi:10.1016/j.jct.2011.12.019)
Numbers after ± are expanded uncertainties.

Test: molar enthalpy of vaporization or sublimation
Conditions: 298.15 K, drop calorimetry

Row | molar enthalpy (Crystal) [kcal/mol] | molar enthalpy (Liquid) [kcal/mol] | SMILES
1 | 18.7 ± 0.765 |  | Cc1ccc(C#N)n1C [1,5-dimethyl-2-pyrrolecarbonitrile]
2 |  | 15.6 ± 0.669 | N#Cc1ccc[nH]1 [2-cyanopyrrole;]
